The source of these data is patent US12398140B2, “Substituted pyrrolo [2,3-d]pyrimidines for treating familial dysautonomia” (PTC THERAPEUTICS, INC., priority 2019, dated 2025).

For this assay, the system named is Elongator complex protein 1 (ELPI, also referred to as IKBKAP). The experiment in a line: IKBKAP-HTRF assay (IKBKAP protein in lysates of FD patient-derived fibroblasts). The assay is classed as cell-based, human. Conditions: FD patient-derived fibroblasts GM04589, 48 hours, 7-point concentration curve. The method in brief:
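FD patient-derived fibroblasts (10,000/well) treated 48 h at 37 °C with compound across a 7-point 3.16-fold series, in triplicate; lysates assayed by sandwich HTRF with two anti-IKAP antibodies, overnight at 4 °C, 665/620 nm read. MFI = ΔF over vehicle; EC2x = concentration doubling IKBKAP protein versus DMSO.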
For orientation: In TR-FRET formats the signal depends on donor and acceptor labels being close together.
Regarding `C[C@H](N)Cc1[nH]c2nc(Cl)nc(NCc3ccccc3)c2c1F.Cl` [Cpd 50, 6-[(2S)-2-aminopropyl]-N-benzyl-2-chloro-5-fluoro-7H-pyrrolo[2,3-d]pyrimidin-4-amine hydrochloride], the “EC2x for IKBKAP protein expression (concentration producing two times the amount of IKBKAP protein vs DMSO vehicle control)” value is “*** (between >0.02 μM and ≤0.5 μM is indicated by three stars (***))”; the “MFI (maximum fold increase in IKBKAP protein abundance relative to the vehicle control)” value was “*** (between >2.9 and ≤3.9 is indicated by three stars (***))”.

Regarding `C[C@H](N)Cc1c(F)c2c(NCc3ccccc3)nc(Cl)nc2n1C.Cl` [Cpd 51, 6-[(2S)-2-aminopropyl]-N-benzyl-2-chloro-5-fluoro-7-methyl-7H-pyrrolo[2,3-d]pyrimidin-4-amine hydrochloride], the “EC2x for IKBKAP protein expression (concentration producing two times the amount of IKBKAP protein vs DMSO vehicle control)” value is “*** (between >0.02 μM and ≤0.5 μM is indicated by three stars (***))”; the “MFI (maximum fold increase in IKBKAP protein abundance relative to the vehicle control)” value was “*** (between >2.9 and ≤3.9 is indicated by three stars (***))”.

For `C[C@H](N)Cc1[nH]c2nc(Cl)nc(NCc3ccccc3F)c2c1F.Cl` [Cpd 52, 6-[(2S)-2-aminopropyl]-2-chloro-5-fluoro-N-[(2-fluorophenyl)methyl]-7H-pyrrolo[2,3-d]pyrimidin-4-amine hydrochloride], the “EC2x for IKBKAP protein expression (concentration producing two times the amount of IKBKAP protein vs DMSO vehicle control)” value was “*** (between >0.02 μM and ≤0.5 μM is indicated by three stars (***))”; the “MFI (maximum fold increase in IKBKAP protein abundance relative to the vehicle control)” value is “**** (between >3.9 and ≤4.9 is indicated by four stars (****))”.

Consider `C[C@H](N)Cc1c(F)c2c(NCc3ccccc3F)nc(Cl)nc2n1C.Cl` [Cpd 53, 6-[(2S)-2-aminopropyl]-2-chloro-5-fluoro-N-[(2-fluorophenyl)methyl]-7-methyl-7H-pyrrolo[2,3-d]pyrimidin-4-amine hydrochloride], for which the “EC2x for IKBKAP protein expression (concentration producing two times the amount of IKBKAP protein vs DMSO vehicle control)” value is “*** (between >0.02 μM and ≤0.5 μM is indicated by three stars (***))”; the “MFI (maximum fold increase in IKBKAP protein abundance relative to the vehicle control)” value was “**** (between >3.9 and ≤4.9 is indicated by four stars (****))”.

As to `C[C@H](N)Cc1[nH]c2nc(Cl)nc(NCc3ccccn3)c2c1F.Cl.Cl` [Cpd 54, 6-[(2S)-2-aminopropyl]-2-chloro-5-fluoro-N-[(pyridin-2-yl)methyl]-7H-pyrrolo[2,3-d]pyrimidin-4-amine dihydrochloride], the “EC2x for IKBKAP protein expression (concentration producing two times the amount of IKBKAP protein vs DMSO vehicle control)” value is “*** (between >0.02 μM and ≤0.5 μM is indicated by three stars (***))”; the “MFI (maximum fold increase in IKBKAP protein abundance relative to the vehicle control)” value is “** (between >1.9 and ≤2.9 is indicated by two stars (**))”.

In the case of `C[C@H](N)Cc1c(F)c2c(NCc3ccccn3)nc(Cl)nc2n1C.Cl.Cl` [Cpd 55, 6-[(2S)-2-aminopropyl]-2-chloro-5-fluoro-7-methyl-N-[(pyridin-2-yl)methyl]-7H-pyrrolo[2,3-d]pyrimidin-4-amine dihydrochloride], the “EC2x for IKBKAP protein expression (concentration producing two times the amount of IKBKAP protein vs DMSO vehicle control)” value is given as “* (An EC2x>1 μM is indicated by one star (*))” and the “MFI (maximum fold increase in IKBKAP protein abundance relative to the vehicle control)” value is given as “* (An MFI≤1.9 is indicated by one star (*))”.

As for `C[C@H](N)Cc1[nH]c2nc(Cl)nc(NCc3cccnc3)c2c1F.Cl.Cl` [Cpd 56, 6-[(2S)-2-aminopropyl]-2-chloro-5-fluoro-N-[(pyridin-3-yl)methyl]-7H-pyrrolo[2,3-d]pyrimidin-4-amine dihydrochloride], the “EC2x for IKBKAP protein expression (concentration producing two times the amount of IKBKAP protein vs DMSO vehicle control)” value is “* (An EC2x>1 μM is indicated by one star (*))” and the “MFI (maximum fold increase in IKBKAP protein abundance relative to the vehicle control)” value is recorded as “* (An MFI≤1.9 is indicated by one star (*))”.

In the case of `C[C@H](N)Cc1c(F)c2c(NCc3cccnc3)nc(Cl)nc2n1C.Cl.Cl` [Cpd 57, 6-[(2S)-2-aminopropyl]-2-chloro-5-fluoro-7-methyl-N-[(pyridin-3-yl)methyl]-7H-pyrrolo[2,3-d]pyrimidin-4-amine dihydrochloride], the “EC2x for IKBKAP protein expression (concentration producing two times the amount of IKBKAP protein vs DMSO vehicle control)” value is “* (An EC2x>1 μM is indicated by one star (*))” and the “MFI (maximum fold increase in IKBKAP protein abundance relative to the vehicle control)” value is reported as “* (An MFI≤1.9 is indicated by one star (*))”.

`CC[C@H](N)Cc1[nH]c2nc(Cl)nc(NCc3cccs3)c2c1F.Cl` [Cpd 58, 6-[(2S)-2-aminobutyl]-2-chloro-5-fluoro-N-[(thiophen-2-yl)methyl]-7H-pyrrolo[2,3-d]pyrimidin-4-amine hydrochloride]: the “EC2x for IKBKAP protein expression (concentration producing two times the amount of IKBKAP protein vs DMSO vehicle control)” value is “*** (between >0.02 μM and ≤0.5 μM is indicated by three stars (***))”; the “MFI (maximum fold increase in IKBKAP protein abundance relative to the vehicle control)” value is “**** (between >3.9 and ≤4.9 is indicated by four stars (****))”.

For `CC[C@H](N)Cc1[nH]c2nc(Cl)nc(NCc3nccs3)c2c1F.Cl` [Cpd 59, 6-[(2S)-2-aminobutyl]-2-chloro-5-fluoro-N-[(1,3-thiazol-2-yl)methyl]-7H-pyrrolo[2,3-d]pyrimidin-4-amine hydrochloride], the “EC2x for IKBKAP protein expression (concentration producing two times the amount of IKBKAP protein vs DMSO vehicle control)” value was “*** (between >0.02 μM and ≤0.5 μM is indicated by three stars (***))”; the “MFI (maximum fold increase in IKBKAP protein abundance relative to the vehicle control)” value is recorded as “***** (>4.9 is indicated by five stars (*****))”.

As for `C[C@@H](N)Cc1c(F)c2c(NCc3ccco3)nc(Cl)nc2n1C.Cl` [Cpd 60, 6-[(2R)-2-aminopropyl]-2-chloro-5-fluoro-N-[(furan-2-yl)methyl]-7-methyl-7H-pyrrolo[2,3-d]pyrimidin-4-amine hydrochloride], the “EC2x for IKBKAP protein expression (concentration producing two times the amount of IKBKAP protein vs DMSO vehicle control)” value is given as “* (An EC2x>1 μM is indicated by one star (*))” and the “MFI (maximum fold increase in IKBKAP protein abundance relative to the vehicle control)” value is recorded as “* (An MFI≤1.9 is indicated by one star (*))”.

In the case of `C[C@H](N)Cc1cc2c(NCc3cscn3)nc(Cl)nc2[nH]1` [Cpd 61, 6-[(2S)-2-aminopropyl]-2-chloro-N-[(1,3-thiazol-4-yl)methyl]-7H-pyrrolo[2,3-d]pyrimidin-4-amine], the “EC2x for IKBKAP protein expression (concentration producing two times the amount of IKBKAP protein vs DMSO vehicle control)” value is reported as “* (An EC2x>1 μM is indicated by one star (*))” and the “MFI (maximum fold increase in IKBKAP protein abundance relative to the vehicle control)” value is reported as “* (An MFI≤1.9 is indicated by one star (*))”.

For the compound `C[C@H](N)Cc1[nH]c2nc(Br)nc(NCc3ccco3)c2c1F` [Cpd 62, 6-[(2S)-2-aminopropyl]-2-bromo-5-fluoro-N-[(furan-2-yl)methyl]-7H-pyrrolo[2,3-d]pyrimidin-4-amine], the “EC2x for IKBKAP protein expression (concentration producing two times the amount of IKBKAP protein vs DMSO vehicle control)” value is “**** (between >0.005 μM and ≤0.02 μM is indicated by four stars (****))”; the “MFI (maximum fold increase in IKBKAP protein abundance relative to the vehicle control)” value is listed as “***** (>4.9 is indicated by five stars (*****))”.
